According to patent US9392789B2, “Compositions of dibromomalonamide and their use as biocides” (Dow Global Technologies LLC, priority 2009, dated 2016):
Where “and” joins values, the source holds several entries; their conditions need not be identical. Identical values can stand only once.

Tested on: mixture of Pseudomonas aeruginosa, Klebsiella pneumoniae, Staphylococcus aureus, and Bacillus subtilis
Test: Growth inhibition assay (microtiter plate-based synergy assay)
Format: cell-based
Settings: 24 h; for I90 value: single active, concentration for ~90% inhibition of growth
From the text: Growth Inhibition Assay. […] Regardless of the mechanism of action, the impact of a biocide (or combination of biocides) can be measured over time on the basis of an increase in the size of the community.
The assay measures the efficacy of one or more biocides at preventing growth of a consortium of bacteria in a dilute mineral salts medium. The medium contains (in mg/l) the following components: FeCl3.6H2O (1); CaCl2.2H2O (10); MgSO4.7H2O (22.5); (NH4)2SO4 (40); KH2PO4 (10); K2HPO4 (25.5); Yeast Extract (10); and glucose (100). After all components are added to deionized water, the pH of the medium is adjusted to 7.5. Following filter sterilization, aliquots are dispensed in 100 ul quantities to sterile microtiter plate wells. Dilutions of 2,2-dibromomalonamide (“DBMAL”) and/or “Biocide B” are then added to the microtiter plate. After preparing the combinations of actives as illustrated below, each well is inoculated with 100 μl of a cell suspension containing ca. 1×10^6 cells per milliliter of a mixture of Pseudomonas aeruginosa, Klebsiella pneumoniae, Staphylococcus aureus, and Bacillus subtilis. The final total volume of medium in each well is 300 μl. Once prepared as described herein, the concentration of each active ranges from 25 ppm to 0.195 ppm as illustrated in Table 1. The resulting matrix allows testing of eight concentrations of each active and 64 combinations of actives in the ratios (of actives).
Controls (not shown) contain the medium with no biocide added. After preparing the combinations of actives as illustrated above, each well is inoculated with 100 μl of a cell suspension containing ca. 1×10^6 cells per milliliter of a mixture of Pseudomonas aeruginosa, Klebsiella pneumoniae, Staphylococcus aureus, and Bacillus subtilis. The final total volume of medium in each well is 300 μl.
Immediately after the microtiter plates are prepared, the optical density (OD) readings for each well is measured at 580 nm and the plates are then incubated at 37° C. for 24 hr. After the incubation period, the plates are gently agitated before OD580 values are collected. The OD580 values at T0 are subtracted from T24 values to determine the total amount of growth (or lack thereof) that occurs. These values are used to calculate the percent inhibition of growth caused by the presence of each biocide and each of the 64 combinations. A 90% inhibition of growth is used as a threshold for calculating synergy index (SI) values with the following equation: Synergy Index=MDBMAL/CDBMAL+MB/CB
where • CDBMAL: Concentration of DBMAL required to inhibit ˜90% of bacterial growth when used alone • CB: Concentration of biocide (B) required to inhibit ˜90% of bacterial growth when used alone. • MDBMAL: Concentration of DBMAL required to inhibit ˜90% of bacterial growth when used in combination with biocide (B). • MB: Concentration of biocide (B) required to inhibit ˜90% of bacterial growth when used in combination with DBMAL The SI values are interpreted as follows: • SI<1: Synergistic combination • SI=1: Additive combination • SI>1: Antagonistic combination
In the Examples below, the amounts of biocides in the solution are measured in mg per liter of solution (mg/l). Since solution densities are approximately 1.00, the mg/l measurement corresponds to weight ppm. Both units may therefore be used interchangeably in the Examples.

Compound | inhibition at 7.81 µg/mL (single active at 7.81 mg/l) | inhibition at 15.63 µg/mL (single active at 15.63 mg/l) | inhibition at 31.25 µg/mL (single active at 31.25 mg/l) | inhibition at 62.5 µg/mL (single active at 62.5 mg/l) | inhibition at 125 µg/mL (single active at 125 mg/l) | inhibition at 250 µg/mL (single active at 250 mg/l) | inhibition at 500 µg/mL (single active at 500 mg/l) | inhibition at 1000 µg/mL (single active at 1,000 mg/l) | % Inhibition of growth (single active at 0.19 mg/l) | % Inhibition of growth (single active at 0.39 mg/l) | % Inhibition of growth (single active at 0.78 mg/l) | % Inhibition of growth (single active at 1.56 mg/l) | % Inhibition of growth (single active at 3.13 mg/l) | % Inhibition of growth (single active at 6.25 mg/l) | % Inhibition of growth (single active at 12.5 mg/l) | % Inhibition of growth (single active at 25.0 mg/l) | I90 value | inhibition at 12.5 µg/mL (single active at 12.5 mg/l) | inhibition at 25 µg/mL (single active at 25.0 mg/l)
OO [H2O2, hydrogen peroxide] | 5% | 2% | 0% | 12% | 6% | 1% | 100% | 89% | – | – | – | – | – | – | – | – | – | – | –
NCl [NH2Cl, monochloramine] | – | – | – | – | – | – | – | – | 4% | 0% | 2% | 97% | 96% | 94% | 97% | 95% | 1.56 mg/L | – | –
O=c1n(Cl)c(=O)n(Cl)c(=O)n1Cl [TCI, trichloroisocyanurate] | – | – | – | – | – | – | – | – | 0% | 0% | 0% | 97% | 96% | 99% | 97% | 94% | – | – | –
O=c1nc([O-])n(Cl)c(=O)n1Cl.[Na+] [DCI, dichloroisocyanurate] | – | – | – | – | – | – | – | – | 0% | 0% | 0% | 98% | 100% | 97% | 100% | 100% | – | – | –
CC1(C)C(=O)N(Cl)C(=O)N1Br [BCDMH, bromochlorodimethylhydantoin] | – | – | – | – | – | – | – | – | 0% | 0% | 5% | 0% | 2% | 100% | 98% | 99% | – | – | –
OBr [HOBr, hypobromous acid] | – | – | – | – | – | – | – | – | 0% | 0% | 0% | 0% | 22% | 57% | 99% | 100% | – | – | –
[O][Cl+][O-] [ClO2, chlorine dioxide] | – | – | – | – | – | – | – | – | 12% | 26% | 35% | 63% | 75% | 99% | 100% | 98% | – | – | –
NC(=O)C(Br)(Br)C(N)=O [DBMAL, 2,2-dibromomalonamide] | – | – | – | – | – | – | – | – | – | 4% and 0% and 5% and 8% and 2% | – | – | – | 9% | 99% and 92% | – | 12.5 mg/L | 100% | 98%
